In general, IC50 refers to the concentration that gives 50% inhibition.

Experimental findings from ChEMBL document CHEMBL1126397, “Synthesis of acid stable 5-o-fluoromethyl phosphonates of nucleosides. Evaluation as inhibitors of reverse transcriptase” (Bioorg Med Chem Lett, 1992) are described below.

For experiment [1], the target named is T1, Human immunodeficiency virus type 1 reverse transcriptase (Human immunodeficiency virus 1, UniProt Q72547). Nature of the experiment: The compound was evaluated as inhibitor of recombinant HIV-l reverse transcriptase.
Experiment [2] addresses T2, Avian myoblastosis virus polyprotein II (Avian myeloblastosis virus, UniProt Q86831).
T2 sequence (Q86831 whole entry): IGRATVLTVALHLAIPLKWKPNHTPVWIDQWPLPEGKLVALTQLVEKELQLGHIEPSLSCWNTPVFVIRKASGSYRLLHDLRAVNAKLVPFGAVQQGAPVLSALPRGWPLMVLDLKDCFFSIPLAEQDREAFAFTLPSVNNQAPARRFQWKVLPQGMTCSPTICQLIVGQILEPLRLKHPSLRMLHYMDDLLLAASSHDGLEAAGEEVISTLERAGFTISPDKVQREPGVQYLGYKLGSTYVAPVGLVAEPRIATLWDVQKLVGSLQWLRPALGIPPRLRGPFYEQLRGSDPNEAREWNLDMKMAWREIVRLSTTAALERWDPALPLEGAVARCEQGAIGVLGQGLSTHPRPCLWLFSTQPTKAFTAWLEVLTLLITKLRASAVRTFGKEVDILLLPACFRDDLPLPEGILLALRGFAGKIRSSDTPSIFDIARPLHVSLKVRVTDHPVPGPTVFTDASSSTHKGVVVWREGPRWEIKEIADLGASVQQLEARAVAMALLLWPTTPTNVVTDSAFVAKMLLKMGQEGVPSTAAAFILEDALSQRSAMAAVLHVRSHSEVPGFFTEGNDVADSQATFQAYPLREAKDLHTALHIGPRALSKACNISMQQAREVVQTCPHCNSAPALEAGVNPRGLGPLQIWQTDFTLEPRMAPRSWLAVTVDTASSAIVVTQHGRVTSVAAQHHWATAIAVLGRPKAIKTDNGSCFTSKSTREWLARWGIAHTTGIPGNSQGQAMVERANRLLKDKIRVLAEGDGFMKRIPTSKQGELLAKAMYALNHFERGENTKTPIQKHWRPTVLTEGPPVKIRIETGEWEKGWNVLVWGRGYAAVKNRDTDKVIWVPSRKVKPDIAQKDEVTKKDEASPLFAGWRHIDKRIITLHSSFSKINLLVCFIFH
Kind of experiment: Inhibitor of avian myeloblastosis virus AMV reverse transcriptase.

The subject of experiment [3] is Avian myeloblastosis virus. Nature of the experiment: The compound was evaluated as inhibitor of avian myeloblastosis virus (AMV) reverse transcriptase. The format is functional, organism-based.
Experiment [4] deals with T1, Human immunodeficiency virus type 1 reverse transcriptase. Nature of the experiment: Compound was evaluated as inhibitor of recombinant HIV-l reverse transcriptase.
The test system of experiment [5] is Avian myeloblastosis virus. Nature of the experiment: Compound was evaluated as inhibitor of avian myeloblastosis virus (AMV) reverse transcriptase. The experiment is classed as functional, organism-based.

Values after ≈ are worked out from the molar mass of the structure shown.

Turning to `Cc1cn(C2CC(N=[N+]=[N-])C(COP(=O)(O)C(F)F)O2)c(=O)[nH]c1=O` (stereo not drawn), in experiment [1], the IC50 is 55.1 µM.

For `Cc1cn(C2CC(N=[N+]=[N-])C(COP(=O)(O)C(F)(F)F)O2)c(=O)[nH]c1=O` (stereo not drawn), the half-inhibitory concentration (IC50) in experiment [1] is 30.1 µM.

Consider `O=c1[nH]c(=O)n([C@H]2C[C@H](O)[C@@H](COP(=O)(O)C(F)(F)F)O2)cc1F`, for which the 50% inhibitory concentration (IC50) in experiment [1] was 47.6 µM.

Take `Cc1cn(C2CC(N=[N+]=[N-])C(COP(=O)(O)CF)O2)c(=O)[nH]c1=O` (stereo not drawn): the IC50 in experiment [1] was 110 µM.

In the case of `Nc1ncnc2c1ncn2C1O[C@H](COP(=O)(O)C(F)F)[C@@H](O)[C@H]1O` (stereo partly drawn), the IC50 in experiment [2] is > 1050 µM.

For the molecule `O=c1ccn(C2O[C@H](COP(=O)(O)C(F)F)[C@@H](O)[C@H]2O)c(=O)[nH]1` (stereo partly drawn), the half-maximal inhibitory concentration (IC50) in experiment [2] was > 1120 µM.

The molecule `Nc1nc(O)c2ncn(C3O[C@H](COP(=O)(O)C(F)F)[C@@H](O)[C@H]3O)c2n1` (stereo partly drawn) returned an IC50 in experiment [3] of 150 µg/mL (≈ 378 µM).

As for `Cc1cn([C@H]2C[C@H](N=[N+]=[N-])[C@@H](COP(=O)(O)O)O2)c(=O)[nH]c1=O` [AZIDOTHYMIDINE MONOPHOSPHATE], the half-maximal inhibitory concentration (IC50) was > 2880 µM in experiment [1] and 900 µg/mL in experiment [3].

As to `Cc1cn([C@H]2C[C@H](N=[N+]=[N-])[C@@H](CO[P@](=O)(O)O[P@](=O)(O)OP(=O)(O)O)O2)c(=O)[nH]c1=O` [ZIDOVUDINE TRIPHOSPHATE], the half-maximal inhibitory concentration (IC50) in experiment [1] is 0.237 µM; in experiment [3], 0.06 µg/mL.

As to `Cc1cn([C@H]2C[C@H](N=[N+]=[N-])[C@@H](CO)O2)c(=O)[nH]c1=O` [ZIDOVUDINE], the concentration for half-maximal inhibition (IC50) in experiment [4] was 2990 µM; in experiment [5] it was 600 µg/mL (≈ 2250 µM).
